Assay results published in publication PMC2572998, “Structures of the Signal Recognition Particle Receptor from the Archaeon Pyrococcus furiosus: Implications for the Targeting Step at the Membrane” (PLoS ONE, 2008).

Target: T1, Pfu-FtsY (Pyrococcus furiosus, UniProt Q8U051)
T1 construct: full-length; N-terminal hexahistidine tag (pET28b, thrombin-cleavable) removed; expressed in E. coli BL21(DE3)-rosetta2; calculated mass 35,810 Da; monomer
T1 sequence (Q8U051 1-322): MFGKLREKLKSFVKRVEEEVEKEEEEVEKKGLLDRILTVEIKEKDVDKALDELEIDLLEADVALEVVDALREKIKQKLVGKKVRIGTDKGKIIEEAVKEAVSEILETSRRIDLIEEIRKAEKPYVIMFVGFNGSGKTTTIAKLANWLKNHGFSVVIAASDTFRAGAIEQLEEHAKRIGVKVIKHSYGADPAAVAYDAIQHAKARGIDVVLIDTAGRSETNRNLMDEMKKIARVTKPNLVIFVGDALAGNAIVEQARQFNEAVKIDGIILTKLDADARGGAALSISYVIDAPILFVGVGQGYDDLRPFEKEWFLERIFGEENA
Assay: X-ray crystal structure, […] Å
Format: binding
Settings: Mg2+; co-crystallised with 10 mM GTP (hydrolysed to GDP), pH 8.0; catalytic site at full occupancy; additional external GDP at crystal contact near insertion box domain (second site, 69% occupancy)

Question: How did the “X-ray crystal structure, 2.0 Å” value turn out when Nc1nc2c(ncn2[C@@H]2O[C@H](COP(=O)(O)OP(=O)(O)O)[C@@H](O)[C@H]2O)c(=O)[nH]1 [GDP] was run?
Answer: The value was “the crystal structure we obtained showed the presence of GDP•magnesium bound in the catalytic site”.
